According to BindingDB's records for doi:10.1124/mol.112.080291 (University of California San Diego, 2014):
Several values for one entry are separate records, joined by “and”; a condition that tells them apart may be missing. Equal entries are not always repeated.

Experiments:
Assay in all cases: Synthesizing Selective Agonists for the ?7 Nicotinic Receptor with in situ Click-Chemistry on Acetylcholine Binding Protein Templates.
[1] = target: Acetylcholine-binding protein (Lymnaea stagnalis, UniProt P58154); settings: pH 7.4; 20 °C
Sequence of Acetylcholine-binding protein (P58154 whole entry): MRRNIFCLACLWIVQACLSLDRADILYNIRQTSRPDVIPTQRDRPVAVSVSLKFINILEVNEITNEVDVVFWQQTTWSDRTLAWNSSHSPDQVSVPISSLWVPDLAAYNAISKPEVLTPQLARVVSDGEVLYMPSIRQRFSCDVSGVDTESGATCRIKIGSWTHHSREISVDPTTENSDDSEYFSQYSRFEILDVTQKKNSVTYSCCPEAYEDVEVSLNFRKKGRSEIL
Method: (§1) Assay Description 2 Assays used to generate Ki or EC50 values. 1) SPA Assay - Quick screen binding assays were performed using 100 l of 0.2 mg/ml anti-mouse SPA antibody-binding beads (Amersham Biosciences) mixed with 33.6 g of monoclonal anti-FLAG M2 antibody from mouse (Sigma) in 0.1 M NaPO4 buffer, pH 7.0 (SPA mixture). Media (5l) collected 2 days after transfection were added to the mixture and finally 10 l of (+)-[3H]epibatidine (PerkinElmer Life Sciences) was added at a final concentration of 10 nM. Solutions were each counted for 1 min on either a Beckman LS 6500 liquid scintillation counter or Wallac 1450 Microbeta Trilux. Negative and positive controls consisted of media (5 l) from the respective transfections. Nonexpressing mutants were transfected and verified de novo in triplicate. Western immunoblots were also performed upon media (15 l) from transfections to verify the lack of expression. Competition curves and direct binding were measured following the protocol p

[2] = target: T1, 5-hydroxytryptamine receptor 3A (Mus musculus, UniProt P23979); settings: pH 7.4; 37 °C
T1 sequence (P23979 whole entry): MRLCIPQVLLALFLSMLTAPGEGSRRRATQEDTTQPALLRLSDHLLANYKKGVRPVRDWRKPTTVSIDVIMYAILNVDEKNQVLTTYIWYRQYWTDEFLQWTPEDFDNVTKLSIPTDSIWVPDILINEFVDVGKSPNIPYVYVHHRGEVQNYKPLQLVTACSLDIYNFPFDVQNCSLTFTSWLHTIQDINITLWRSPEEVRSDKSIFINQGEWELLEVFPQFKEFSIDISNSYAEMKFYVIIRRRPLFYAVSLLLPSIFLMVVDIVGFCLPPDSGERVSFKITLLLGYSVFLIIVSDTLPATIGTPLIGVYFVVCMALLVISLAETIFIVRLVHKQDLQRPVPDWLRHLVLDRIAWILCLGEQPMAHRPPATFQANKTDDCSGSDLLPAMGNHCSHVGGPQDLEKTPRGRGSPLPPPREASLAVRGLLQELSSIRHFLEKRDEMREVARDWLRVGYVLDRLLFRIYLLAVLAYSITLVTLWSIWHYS
Method: as §1

[3] = target: Neuronal acetylcholine receptor subunit alpha-7 (Homo sapiens, UniProt P36544); settings: pH 7.4; 37 °C
Sequence of Neuronal acetylcholine receptor subunit alpha-7 (P36544 whole entry): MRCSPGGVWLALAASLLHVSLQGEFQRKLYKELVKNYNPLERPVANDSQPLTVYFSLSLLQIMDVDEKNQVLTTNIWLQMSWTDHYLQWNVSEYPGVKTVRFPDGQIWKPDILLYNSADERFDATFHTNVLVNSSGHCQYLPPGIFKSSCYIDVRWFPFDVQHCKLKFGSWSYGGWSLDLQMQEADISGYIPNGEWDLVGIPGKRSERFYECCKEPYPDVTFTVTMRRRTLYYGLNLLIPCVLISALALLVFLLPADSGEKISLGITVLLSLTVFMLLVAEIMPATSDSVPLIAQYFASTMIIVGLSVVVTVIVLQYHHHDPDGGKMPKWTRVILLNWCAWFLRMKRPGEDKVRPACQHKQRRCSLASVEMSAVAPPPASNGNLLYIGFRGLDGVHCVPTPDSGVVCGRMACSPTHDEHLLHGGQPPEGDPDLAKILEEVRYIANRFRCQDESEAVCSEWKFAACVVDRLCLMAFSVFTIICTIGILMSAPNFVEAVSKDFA
Method: as §1

[4] = target: Neuronal acetylcholine receptor subunit alpha-4 (Homo sapiens, UniProt P43681); settings: pH 7.4; 37 °C
Sequence of Neuronal acetylcholine receptor subunit alpha-4 (P43681 whole entry): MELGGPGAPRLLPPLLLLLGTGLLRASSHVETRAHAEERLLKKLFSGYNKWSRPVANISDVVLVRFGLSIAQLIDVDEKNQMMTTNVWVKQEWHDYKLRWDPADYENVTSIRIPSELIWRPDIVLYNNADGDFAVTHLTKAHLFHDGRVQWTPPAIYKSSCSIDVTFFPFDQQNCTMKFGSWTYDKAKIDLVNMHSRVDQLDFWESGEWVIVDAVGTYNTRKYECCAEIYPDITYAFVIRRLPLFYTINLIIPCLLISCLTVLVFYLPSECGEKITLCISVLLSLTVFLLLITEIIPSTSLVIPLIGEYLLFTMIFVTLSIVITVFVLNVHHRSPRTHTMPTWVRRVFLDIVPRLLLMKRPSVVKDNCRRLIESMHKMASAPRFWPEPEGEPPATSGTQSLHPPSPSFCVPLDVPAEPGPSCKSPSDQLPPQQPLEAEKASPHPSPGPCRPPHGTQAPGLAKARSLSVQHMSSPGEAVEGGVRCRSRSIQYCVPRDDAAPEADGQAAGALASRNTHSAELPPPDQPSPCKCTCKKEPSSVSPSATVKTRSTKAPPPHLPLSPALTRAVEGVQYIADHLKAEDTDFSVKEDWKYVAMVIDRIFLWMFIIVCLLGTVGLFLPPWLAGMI
Method: as §1

[5] = target: T2, Soluble acetylcholine receptor (Aplysia californica, UniProt Q8WSF8); settings: pH 7.4; 20 °C
T2 sequence (Q8WSF8 whole entry): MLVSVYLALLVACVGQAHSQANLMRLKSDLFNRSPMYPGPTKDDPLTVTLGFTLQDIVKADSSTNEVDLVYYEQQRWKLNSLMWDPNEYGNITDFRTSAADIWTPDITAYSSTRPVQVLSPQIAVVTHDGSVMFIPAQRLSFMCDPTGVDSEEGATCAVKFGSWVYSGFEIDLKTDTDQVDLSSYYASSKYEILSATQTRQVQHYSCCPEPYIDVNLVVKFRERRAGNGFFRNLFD
Method: as §1

Structure (SMILES)	Ki [1] [nM]	Ki [2] [nM]	EC50 [3] [nM]	Ki [4] [nM]	Ki [5]
C[N+]1(C)[C@@H]2CC[C@H]1C[C@H](n1cc(COc3ccccc3C3CCCC3)nn1)C2 [18q]	70	> 30000	400	4000	260 nM and 270 nM and 440 nM
CN1[C@@H]2CC[C@H]1C[C@H](n1cc(C3(O)c4ccccc4-c4ccccc43)nn1)C2 [20t]	500	> 30000	12000	> 30000	2000 nM and 3100 nM and > 5000 nM
